For assay [1], the target named is T1, ST8SiaII (Homo sapiens, UniProt Q92186).
T1 construct: gene ST8SIA2
T1 sequence (Q92186 1-375): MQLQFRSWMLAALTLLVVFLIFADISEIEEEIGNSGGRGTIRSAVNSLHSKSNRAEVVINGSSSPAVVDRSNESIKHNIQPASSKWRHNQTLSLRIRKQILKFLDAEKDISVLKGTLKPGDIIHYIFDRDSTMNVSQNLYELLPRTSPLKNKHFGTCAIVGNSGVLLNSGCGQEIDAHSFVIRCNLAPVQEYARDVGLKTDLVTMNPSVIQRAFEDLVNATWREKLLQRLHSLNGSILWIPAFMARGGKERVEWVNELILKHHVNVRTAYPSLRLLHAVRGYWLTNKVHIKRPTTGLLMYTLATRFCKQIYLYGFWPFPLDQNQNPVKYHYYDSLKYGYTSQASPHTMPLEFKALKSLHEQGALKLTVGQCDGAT
The assay can be described thus: HPLC-fluorescence enzyme kinetics, Lineweaver-Burk (Km). Type of assay: biochemical.

For assay [2], the target named is T1, ST8SiaII. The assay can be described thus: HPLC assay of DMB-DP3 polysialylation with recombinant human ST8SiaII, Dixon plot. The assay is classed as biochemical.

The term Km denotes the substrate concentration at which the rate is half of its maximum. On to DMB-DP3, for which the Km on ST8SiaII [1] came out at 38.9 µM.
In general, Ki refers to the dissociation constant of the complex between target and ligand, obtained from inhibition or displacement. Take `Nc1ccn([C@@H]2O[C@H](COP(=O)(O)O)[C@@H](O)[C@H]2O)c(=O)n1` [CMP]: the Ki at ST8SiaII [2] turned out to be 10 µM.

The record behind these values is PMC3739731, “Pharmacological Inhibition of polysialyltransferase ST8SiaII Modulates Tumour Cell Migration” (PLoS ONE, 2013).
